According to patent US20070154534A1, “Use of secretin in the treatment of schizophrenia” (priority 2003, published 2007):
Marks after values point to notes of the source that are not given here. Ends that are not written are not given here.

Columns and labels:
[1] = clinical units (CU); 0.2 mcg = 1 CU; cited from earlier work
[2] = tested on: patients with refractory schizophrenia; assay: Double-blind placebo-controlled pilot study of a single intravenous dose of porcine secretin, rated with PANSS and CGI; assay type: in vivo, human; details: for PANSS negative: baseline 25.5; for PANSS positive: baseline 27; for PANSS general: baseline 48.7; for PANSS total: baseline 101.2
Experimental: A pilot study of secretin for treatment of refractory schizophrenia was performed. Twenty-two patients were randomized to a single intravenous dose of porcine secretin or placebo. Patients were evaluated with the Positive and Negative Symptom Scale for Schizophrenia (PANSS) and the Clinical Global Impression Scale (CGI) at baseline, two days after secretin infusion and weekly for four weeks. Several patients treated with secretin experienced clinically meaningful, though transient when given a single dose, reductions in symptoms and a greater percentage of patients treated with secretin were rated as improved with the CGI.
All subjects were inpatients at Dorothea Dix Hospital in Raleigh, N.C. United States of America. The protocol was approved by the University of North Carolina at Chapel Hill Committee for the Protection of the Rights of Research Subjects. Subjects or their guardians provided written informed consent. Patients met the following inclusion criteria: (1) age 18-60; (2) DSM-IV diagnosis of schizophrenia or schizoaffective disorder; (3) severe residual symptoms despite at least three adequate trials of anti-psychotic drugs, including at least one atypical drug. Residual symptoms were defined as active delusions, hallucinations, or thought disorder, accompanied by unemployment and lack of significant social relationships outside the family of origin; (4) a baseline PANSS score of at least 70; (5) no changes in psychotropic medications for 4 weeks prior to study entry.
Subjects were assessed at baseline, two days post-infusion, and weekly for four subsequent weeks, with the Clinical Global Impression Scale (CGI) and the Positive and Negative Symptom Scale for Schizophrenia (PANSS). All raters achieved inter-rater reliability of at least 0.90 for the PANSS, and each subject had the same rater for each assessment. Qualitative impressions were also collected from clinical staff during the course of the trial.

[3] = tested on: patients with refractory schizophrenia; details: in vivo, iv
Experimental: Twenty-two subjects were enrolled in the protocol and were randomly assigned to receive one dose of intravenous porcine secretin (SECRETIN-FERRING™, Ferring Laboratories, Inc., Suffern, N.Y., United States of America) or normal saline under double-blind conditions. The protocol allowed for only one infusion of secretin regardless of response. The first seven subjects received either 75 CU of secretin dissolved in 7.5 mL of normal saline (n=4), or saline alone (n=3). The remaining 15 subjects received 150 CU of secretin (n=7) or saline (n=8).

[4] = Week 1, single i.v. dose 75 or 150 CU, n=11, mean
[5] = Week 1 after single i.v. dose 75 or 150 CU, n=11, mean
[6] = Week 2, single i.v. dose 75 or 150 CU, n=11, mean
[7] = Week 2 after single i.v. dose 75 or 150 CU, n=11, mean
[8] = Week 3, single i.v. dose 75 or 150 CU, n=11, mean
[9] = Week 3 after single i.v. dose 75 or 150 CU, n=11, mean
[10] = Week 4, single i.v. dose 75 or 150 CU, n=11, mean
[11] = Week 4 after single i.v. dose 75 or 150 CU, n=11, mean
[12] = within the first week after infusion, of 11 secretin-treated patients

In the case of “SECREFLO: Secretin commercially available under the trademark SECREFLO from RepliGen Corporation (HSDGTFTSELSRLRDSARLQRLLQGLV-NH2; ends and bridges not checked; UniProt P63298 33-59, looked up)”, the “Potency per milligram of peptide” value [1] is listed as “approximately 5000 CU per milligram”.
With Secretin the “Patients with a clinically meaningful response” value ([2]; 75 CU single i.v. dose) was 1 of 4, the “Patients with a clinically meaningful response” value ([2]; 150 CU single i.v. dose) was 2 of 7 and the CGI-I ([2]; Day 2 after single i.v. dose 75 or 150 CU, n=11, mean (SD)) was 3.5 (0.8)*. For the same substance, the “Group by time interaction for the CGI-Improvement (CGI-I) scale (repeated measures ANOVA, vs placebo)” value ([2]; F=0.69) was “no significant group by time interaction”, the “Group by time interaction for PANSS total, positive, negative and general psychopathology scores (repeated measures ANOVA, vs placebo)” value ([2]; F=1.72, 1.08, 0.6679, 0.41) was “no significant group by time interactions” and the PANSS negative [2, 4] was 24.3. For the same substance, the PANSS positive [2, 4] was 25, the PANSS general [2, 4] was 45.8 and the CGI-I [2, 5] was 3.4*. It also gave a PANSS total [2, 5] of 95.1, a PANSS negative [2, 6] of 24.7 and a PANSS positive [2, 6] of 26.9. The PANSS general [2, 6] was 49.2, the CGI-I [2, 7] was 3.9 and the PANSS total [2, 7] was 100.8. For the same substance, the PANSS negative [2, 8] was 24.9, the PANSS positive [2, 8] was 27 and the PANSS general [2, 8] was 48.2. The CGI-I [2, 9] was 3.8*, the PANSS total [2, 9] was 100.1 and the PANSS negative [2, 10] was 24.5. The PANSS positive [2, 10] was 26.7, the PANSS general [2, 10] was 48.3 and the CGI-I [2, 11] was 3.9. For the same substance, the PANSS total [2, 11] was 99.5, the “Time until reversion to usual behavior and level of function” value ([2]; patient of Example 1, 75 CU) was “four” and the “Time to onset of clinical improvement (more interactive)” value ([2]; patient of Example 1, person, disorganized schizophrenia, 75 CU) was ≤ 24 h. The “Time until return to baseline mental state” value ([2]; patient of Example 2, 150 CU) was ≤ 12 h, the “Time to onset of clinical improvement (more alert, coherent speech)” value ([2]; patient of Example 2, person, disorganized schizophrenia, 150 CU) was “six” and the “Time after infusion at which improvement was seen (agreed to attend off ward activities)” value ([2]; patient of Example 3, person, paranoid schizophrenia, 150 CU) was 48 h. For the same substance, the “CGI-I scale vs placebo, post-hoc exploratory Student's t-tests” value ([2]; two days after infusion (p=0.03), week 1 (p=0.009), week 3 (p=0.002)) was “significant improvement”, the “Patients rated as minimally improved (qualitative grouping of CGI-I scores)” value [2, 12] was “five” and the “Patients rated as much improved (qualitative grouping of CGI-I scores)” value [2, 12] was “three”. For the same substance, the “Patients rated as unchanged (qualitative grouping of CGI-I scores)” value [2, 12] was “two”, the “Patients rated as worse (qualitative grouping of CGI-I scores)” value [2, 12] was “one” and the Allergic reactions [3] was “no allergic reactions were observed”. The “Premature dropouts or serious adverse events during the trial” value [3] was “no premature dropouts or serious adverse events” and the Side effects [3] was “no side effects noted”.
For “biologically derived porcine secretin: biologically derived porcine secretin, comparison for SECREFLO potency (HSDGTFTSELSRLRDSARLQRLLQGLV; ends and bridges not checked; UniProt P63298 33-59, looked up)”, the “Potency per milligram of peptide” value [1] is listed as 3000 CU per milligram.
